# Measured values as given in PMC7827417, “Steroid Glycosides Hyrcanoside and Deglucohyrcanoside: On Isolation, Structural Identification, and Anticancer Activity” (Foods, 2021).
# Like-named read-outs stand apart in the source and are kept apart here.
# Assays:
# [1] = system: CCRF-CEM; assay: MTS cytotoxic assay, CCRF-CEM; assay type: cell-based; settings: Homo sapiens, 72 h
# Description: (§1) If not indicated otherwise, the cell lines were purchased from the American Type Culture Collection (ATCC). […] K562 is the erythroid-myeloid precursor cell line derived from chronic myeloid leukemia carrying the BCR-ABL hybrid gene. A549, MCF-7, PC-3, 5637, U-2 OS, and MiaPaCa-2 are cells derived from lung, breast, prostate, bladder carcinoma, osteosarcoma, and pancreatic adenocarcinoma, respectively. HEK 293T are transformed human embryonic kidney cells, and L929 (Sigma, St. Louis, MS, USA) are transformed mouse fibroblasts. HCT116, cells from colorectal carcinoma, and their p53 gene knock-out variant (HCT116p53-/-) were purchased from Horizon Discovery. This cell line is a model of human tumors bearing p53 loss-of-function mutations or biallelic deletion of the p53 gene, frequently associated with poor prognosis. The MRC-5 and BJ cells were used as noncancerous cells; more specifically, they are human fibroblasts from the lungs and foreskin, respectively. According to the supplier’s recommendations, all cells were cultured at 37 °C in a 5% CO2 atmosphere and 100% humidity. The culture media used were: DMEM, RPMI 1640, and MEM (according to a cell line); all were supplemented with 5 g L^−1 glucose, 10% fetal calf serum, 2 mM glutamine, 100 U mL^−1 penicillin, 100 µg mL^−1 streptomycin, and NaHCO3. Cells were passaged every two or three days using 0.25% trypsin plus 0.01% EDTA (ethylenediamine tetraacetic acid) in phosphate-buffered saline.
# (§2) To evaluate compound cytotoxicity, cells were seeded in 384-well microtiter plates in a volume of […]. The next day, aliquots of the tested derivatives were transferred with Echo550 acoustic liquid handler (Labcyte) to obtain dose response curves with dilution factor 4. The experiments were performed in technical duplicates and three or more biological replicates. After 72 h of incubation in a humidified incubator, […] of the MTS/PMS stock solution were pipetted into each well. After another 1–4 h of incubation, the absorbance at 490 nm was measured using an EnVision Multilabel Plate Reader (PerkinElmer).
# [2] = system: A549; assay: MTS cytotoxic assay, A549; assay type: cell-based; settings: Homo sapiens
# Description: as §1, §2
# [3] = system: HCT116p53-/-; assay: MTS cytotoxic assay, HCT116p53-/-; assay type: cell-based; settings: Homo sapiens, 72 h
# Description: as §1, §2
# [4] = system: MCF-7; assay: MTS cytotoxic assay, MCF-7; assay type: cell-based; settings: Homo sapiens
# Description: as §1, §2
# [5] = system: PC-3; assay: MTS cytotoxic assay, PC-3; assay type: cell-based; settings: Homo sapiens
# Description: as §1, §2
# [6] = system: mouse peritoneal cells; assay: Viability of mouse peritoneal primary cells (macrophages), WST-1; assay type: cell-based; settings: 24 h; for IC50: Mus musculus, Macrophage, WST-1, lowest tested concentration 1 nM, read-out: concentration at which IC50 was reached in mouse macrophages
# Procedure: Female mice of the inbred strain C57BL/6, eight to ten weeks old, were purchased from Charles River Deutschland (Sulzfeld, Germany). They were kept in transparent plastic cages in groups of ten. The animals were housed with food and water ad libitum, lighting was set on 6–18 h, and the temperature was set at 22 °C. All protocols were approved by the institutional ethics committee (MSMT15894/2013-310). Animals, killed by cervical dislocation, were intraperitoneally injected with 8 mL of sterile saline. Pooled peritoneal cells collected from mice were washed in sterile saline, re-suspended in the culture medium, and seeded into 96-well microplates in final 100-μL volumes (Costar, Cambridge, MA, USA). The final density of the cells was 0.25 × 10^6 per mL^−1. The cultures were maintained with or without compounds for 24 h at 37 °C with 5% CO2 in a humidified Heraeus incubator in complete RPMI-1640 (Merck-Sigma, St. Louis, MS, USA), which contained 10% heat-inactivated fetal bovine serum, 2 mM of L-glutamine, 50 μg·mL^−1 of gentamicin, and 5 × 10^−5 M of 2-mercaptoethanol (all Merck-Sigma, St. Louis, MS, USA). Compounds (Ob, Cy (cymarin), Hyr, deHyr) were prepared as 100 mM stock solutions in dimethyl sulfoxide (DMSO) with cell culture grade. The next dilution continued immediately before the experiment with the culture medium. To eliminate the influence of DMSO, equal levels of DMSO were added to the experimental groups.
# The viability of mouse peritoneal cells was determined using a colorimetric assay based on the cleavage of the tetrazolium salt WST-1 by mitochondrial dehydrogenases in viable cells (Merck-Sigma, St. Louis, MS, USA). The cells were cultured as described above. After 24 h of culture, the WST-1 was added, and the cells were kept in the Heraeus incubator at 37 °C for an additional 3 h. Optical density at 450/690 nm was determined. The cytotoxicity of the tested CGs was expressed as a percentage. The test samples were related to control samples consisting of untreated cells and samples with 100% dead cells evoked by 1% Triton, according to the formula: ((exp. value − control value)/(Triton value − control value)) × 100. All control and experimental variants were run in quadruplicates. The data were analyzed using GraphPad Prism software 6.05 (GraphPad, San Diego, CA, USA). Values were expressed as the mean ± standard error of the mean (SEM).
# [7] = system: CCRF-CEM cells; assay: BrDU incorporation analysis (DNA synthesis); assay type: cell-based, human; settings: % of positive cells
# Procedure: The cells were cultured in the same way as the cell cycle analysis method. Just before harvesting, 5-bromo-2′-deoxyuridine (BrDU) of 10 µM concentration was added to the cells for pulse-labeling for 30 min. Then, the cells were fixed with −20 °C cold 70% ethanol and stored in a freezer for 16 h. Before antibody staining, the samples were incubated on ice for 30 min, washed once with phosphate-buffered saline (PBS), and re-suspended in 2 M of HCl for 30 min at room temperature to hydrolyze their DNA. After neutralization with 0.1 M of Na2B4O7 (borax) solution, the cells were washed with PBS containing 0.5% Tween-20 and 1% BSA. This was followed by staining with the primary anti-BrDU antibody (Exbio) for 30 min at room temperature. Then, the cells were washed with PBS and stained with a secondary anti-mouse antibody conjugated to fluorescein isothiocyanate (Merck-Sigma, St. Louis, MS, USA) at room temperature in the dark. After another washing with PBS and incubation with propidium iodide (0.1 mg·mL^−1) and RNAse A (0.5 mg·mL^−1) for 1 h at room temperature in the dark, the cells were analyzed by flow cytometry using a 488 nm laser (FACSCalibur, Becton Dickinson, Franklin Lakes, NJ, USA).
# [8] = system: SH-SY5Y cells; set-up: method as in PMID 25838173; settings: cited from earlier work
# [9] = system: rat vascular smooth muscle cells, endothelial cells, and astrocytes; set-up: method as in PMID 26067145; settings: high concentrations of Ob (3–3000 μM) ref 54; cited from earlier work
# [10] = WST-1, 0.001–100.0 µM, not dose-dependent
SMILES,IC50 [1] [nM],"IC50 ([2]; A549, 72 h) [nM]",IC50 [3] [nM],"IC50 ([4]; MCF7, 72 h) [nM]","IC50 ([5]; PC-3, 72 h) [nM]","cytotoxicity to mouse macrophages, % of the control [6, 10]",IC50 [6] [nM],"BrDU ([7]; 1 × IC50, 24 h) [%]","BrDU ([7]; 5 × IC50, 24 h) [%]","IC50 ([1]; MTS, read-out: IC50) [nM]","IC50 ([2]; A549, MTS, 72 h, read-out: IC50) [nM]","IC50 ([3]; HCT116p53-/-, MTS, read-out: IC50) [nM]","IC50 ([4]; MCF7, MCF-7, MTS, 72 h, read-out: IC50) [nM]","IC50 ([5]; PC-3, MTS, 72 h, read-out: IC50) [nM]","decrease of viability of mouse macrophages compared to the control ([6]; WST-1, independent of concentration 1 nm–100 µM)",cytotoxicity to mouse macrophages (in words) ([6]; up to 100 µM concentration),reduction of viability ([8]; 24 h ref 53) [%],reduction of viability ([8]; 48 h ref 53) [%],survival of rodent cells (in words) [9],"viability of mouse macrophages reduced to % of the control [6, 10] [%]"
"C[C@]12CC[C@H]3[C@@H](CCC4=C[C@@H](O[C@@H]5OC[C@@H](O[C@@H]6O[C@H](CO)[C@@H](O)[C@H](O)[C@H]6O)[C@H](O)[C@H]5O)CC[C@@]43C=O)[C@@]1(O)CC[C@@H]2C1=CC(=O)OC1 [Hyr, (3β)-3-[(4-O-β-D-glucopyranosyl-β-D-xylopyranosyl)oxy]-14-hydroxy-19-oxocarda-4,20(22)-dienolide]",660 ± 38,550 ± 38,730 ± 98,566 ± 29,756 ± 29,about 60%,~100,30.58,23.58,,,,,,,,,,,
"C[C@@H]1O[C@@H](O[C@H]2C[C@@H](O)[C@]3(CO)[C@H]4[C@H](O)C[C@]5(C)[C@@H](C6=CC(=O)OC6)CC[C@]5(O)[C@@H]4CC[C@]3(O)C2)[C@H](O)[C@H](O)[C@H]1O [Ob, ouabain]",,,,,,,,40.53,19.29,32 ± 5.8,22 ± 0.94,28 ± 7.6,52 ± 5.6,49 ± 1.4,10–20%,did not exhibit significant cytotoxicity,40,10,perfectly survived,
"CO[C@H]1C[C@H](O[C@H]2CC[C@]3(C=O)[C@H]4CC[C@]5(C)[C@@H](C6=CC(=O)OC6)CC[C@]5(O)[C@@H]4CC[C@]3(O)C2)O[C@H](C)[C@H]1O [Cy, cymarin]",14 ± 2.1,15 ± 1.8,19 ± 3.8,29 ± 8.1,26 ± 2.9,about 60%,≤ 1,32.34,21.37,,,,,,,,,,,
"C[C@]12CC[C@H]3[C@@H](CCC4=C[C@@H](O[C@@H]5OC[C@@H](O)[C@H](O)[C@H]5O)CC[C@@]43C=O)[C@@]1(O)CC[C@@H]2C1=CC(=O)OC1 [deHyr, deglucohyrcanoside]",110 ± 21,90 ± 14,130 ± 23,119 ± 6.4,122 ± 4.7,,~10,37.40,6.08,,,,,,,,,,,50
